Measured values: patent US6825172B2, “3-descladinosyl-6-O-carbamoyl and 6-O-carbonoyl macrolide antibacterial agents” (Janssen Pharmaceutica, NV, priority 2002, dated 2004)
≈ marks a conversion by molar mass, not a printed value. Where two headings read alike, the source gives them in different places.

What was measured:
Experiment in all cases: MIC, microdilution broth method (NCCLS)
Type in all cases: cell-based
E. faecalis ATCC29212 = settings: Enterococcus faecalis, read-out: MIC Values, C: E. faecalis ATCC29212
Description: (§1) Minimal inhibitory concentration (MIC) has been an indicator of in vitro antibacterial activity widely used in the art. The in vitro antimicrobial activity of the compounds was determined by the microdilution broth method following the test method from the National Committee for Clinical Laboratory Standards (NCCLS). This method is described in the NCCLS Document M7-A4, Vol.17, No.2, “Methods for Dilution Antimicrobial Susceptibility Test for Bacteria that Grow Aerobically—Fourth Edition”, which is incorporated herein by reference.
(§2) In this method two-fold serial dilutions of drug in cation adjusted Mueller-Hinton broth are added to wells in microdilution trays. The test organisms are prepared by adjusting the turbidity of actively growing broth cultures so that the final concentration of test organism after it is added to the wells is approximately 5×10^4 CFU/well.
(§3) Following inoculation of the microdilution trays, the trays are incubated at 35 °C for 16-20 hours and then read. […] The amount of growth in the wells containing the test compound is compared with the amount of growth in the growth-control wells (no test compound) used in each tray. As set forth in Table 1, compounds of the present invention were tested against a variety of Gram positive and Gram negative pathogenic bacteria resulting in a range of activities depending on the organism tested.

S. aureus ATCC29213 = settings: Staphylococcus aureus, read-out: MIC Values, B: S. aureus ATCC29213
Description: as §1, §2, §3

S. pneumoniae ATCC49619 = settings: Streptococcus pneumoniae, read-out: MIC Values, D: S. pneumoniae ATCC49619
Description: as §1, §2, §3

[1] = Table 1, 6-Carbamoyl-3-Acyl Macrolide Derivatives
[2] = Table 3, 6-Carbonate Macrolide Derivatives
[3] = Table 2, 3,6-Dicarbamoyl Macrolide Derivatives

| MIC (E. faecalis ATCC29212; [1]) [µg/mL] | MIC (S. aureus ATCC29213; [1]) [µg/mL] | MIC (S. pneumoniae ATCC49619; [1]) [µg/mL] | MIC (E. faecalis ATCC29212; [2]) [µg/mL] | MIC (S. aureus ATCC29213; [2]) [µg/mL] | MIC (S. pneumoniae ATCC49619; [2]) [µg/mL] | SMILES | further results |
| --- | --- | --- | --- | --- | --- | --- | --- |
| 0.12 (≈ 0.132 µM) | 0.5 (≈ 0.551 µM) | 0.06 (≈ 0.0661 µM) | – | – | – | CC[C@H]1OC(=O)[C@H](C)[C@@H](OC(=O)C(C)C)[C@H](C)[C@@H](O[C@@H]2O[C@H](C)C[C@H](N(C)C)[C@H]2O)[C@](C)(OC(=O)NC/C=C/c2ccc(-c3cccnn3)cc2)C[C@@H](C)C(=O)[C@H](C)[C@H]2NC(=O)O[C@@]21C [Compound 46] | – |
| 0.5 (≈ 0.533 µM) | 1 (≈ 1.07 µM) | 0.06 (≈ 0.064 µM) | – | – | – | CC[C@H]1OC(=O)[C@H](C)[C@@H](OC(=O)C(C)C)[C@H](C)[C@@H](O[C@@H]2O[C@H](C)C[C@H](N(C)C)[C@H]2OC(C)=O)[C@](C)(OC(=O)NC/C=C/c2ccc(-n3cccn3)cc2)C[C@@H](C)C(=O)[C@H](C)[C@H]2NC(=O)O[C@@]21C [Compound 48] | – |
| – | – | – | 0.5 (≈ 0.522 µM) | 1 (≈ 1.04 µM) | 0.06 (≈ 0.0626 µM) | CC[C@H]1OC(=O)[C@H](C)[C@@H](OC(=O)Cc2cccnc2)[C@H](C)[C@@H](O[C@@H]2O[C@H](C)C[C@H](N(C)C)[C@H]2O)[C@](C)(OC(=O)OC/C=C/c2ccc(-c3cnccn3)cc2)C[C@@H](C)C(=O)[C@H](C)[C@H]2NC(=O)O[C@@]21C [Compound 77] | – |
| – | – | – | – | – | – | CC[C@H]1OC(=O)[C@H](C)[C@@H](OC(=O)N(CC)CC)[C@H](C)[C@@H](O[C@@H]2O[C@H](C)C[C@H](N(C)C)[C@H]2O)[C@](C)(OC(=O)NC/C=C/c2ccc(-n3cccn3)cc2)C[C@@H](C)C(=O)[C@H](C)[C@H]2NC(=O)O[C@@]21C [Compound 70] | MIC (E. faecalis ATCC29212; [3]): 0.5 µg/mL (≈ 0.54 µM); MIC (S. aureus ATCC29213; [3]): 1 µg/mL (≈ 1.08 µM); MIC (S. pneumoniae ATCC49619; [3]): 0.06 µg/mL (≈ 0.0649 µM) |
| – | – | – | – | – | – | CC[C@H]1OC(=O)[C@H](C)[C@@H](OC(=O)N(CC)CC)[C@H](C)[C@@H](O[C@@H]2O[C@H](C)C[C@H](N(C)C)[C@H]2O)[C@](C)(OC(=O)NC/C=C/c2ccc(-n3cncn3)cc2)C[C@@H](C)C(=O)[C@H](C)[C@H]2NC(=O)O[C@@]21C [Compound 72] | MIC (E. faecalis ATCC29212; [3]): 0.5 µg/mL (≈ 0.54 µM); MIC (S. aureus ATCC29213; [3]): 0.5 µg/mL (≈ 0.54 µM); MIC (S. pneumoniae ATCC49619; [3]): 0.06 µg/mL (≈ 0.0648 µM) |
| – | – | – | 0.5 (≈ 0.537 µM) | 1 (≈ 1.07 µM) | 0.06 (≈ 0.0644 µM) | CC[C@H]1OC(=O)[C@H](C)[C@@H](OC(=O)Cc2cccnc2)[C@H](C)[C@@H](O[C@@H]2O[C@H](C)C[C@H](N(C)C)[C@H]2O)[C@](C)(OC(=O)OC/C=C/c2cnc3ccccc3c2)C[C@@H](C)C(=O)[C@H](C)[C@H]2NC(=O)O[C@@]21C [Compound 80] | – |
| – | – | – | 0.5 (≈ 0.533 µM) | 1 (≈ 1.07 µM) | 0.06 (≈ 0.064 µM) | CC[C@H]1OC(=O)[C@H](C)[C@@H](OC(=O)N(CC)CC)[C@H](C)[C@@H](O[C@@H]2O[C@H](C)C[C@H](N(C)C)[C@H]2O)[C@](C)(OC(=O)OC/C=C/c2ccc(-c3cccnn3)cc2)C[C@@H](C)C(=O)[C@H](C)[C@H]2NC(=O)O[C@@]21C [Compound 83, Carbonic acid, (3aS,4R,7R,8S,9S,10R,11R,13R,15R,15aR)-8-[[(diethylamino)carbonyl]oxy]-4-ethyltetradecahydro-3a,7,9,11,13,15-hexamethyl-2,6,14-trioxo-10-[[3,4,6-trideoxy-3-(dimethylamino)-β-D-xylo-hexopyranosyl]oxy]-2H-oxacyclotetradecino[4,3-d]oxazol-11-yl(2E)-3-[4-(3-pyridazinyl)phenyl]-2-propenyl ester] | – |
| 0.5 (≈ 0.534 µM) | 1 (≈ 1.07 µM) | 0.06 (≈ 0.064 µM) | – | – | – | CC[C@H]1OC(=O)[C@H](C)[C@@H](OC(=O)Cc2cccnc2)[C@H](C)[C@@H](O[C@@H]2O[C@H](C)C[C@H](N(C)C)[C@H]2O)[C@](C)(OC(=O)NC/C=C/c2cnc(C(C)(C)C)nc2)C[C@@H](C)C(=O)[C@H](C)[C@H]2NC(=O)O[C@@]21C [Compound 42] | – |
| – | – | – | – | – | – | CC[C@H]1OC(=O)[C@H](C)[C@@H](OC(=O)N(CC)CC)[C@H](C)[C@@H](O[C@@H]2O[C@H](C)C[C@H](N(C)C)[C@H]2O)[C@](C)(OC(=O)NC/C=C/c2ccc(-c3ccn(C)n3)cc2)C[C@@H](C)C(=O)[C@H](C)[C@H]2NC(=O)O[C@@]21C [Compound 73] | MIC (E. faecalis ATCC29212; [3]): 0.5 µg/mL (≈ 0.532 µM); MIC (S. aureus ATCC29213; [3]): 1 µg/mL (≈ 1.06 µM); MIC (S. pneumoniae ATCC49619; [3]): 0.12 µg/mL (≈ 0.128 µM) |
| 0.5 (≈ 0.551 µM) | 0.5 (≈ 0.551 µM) | 0.06 (≈ 0.0661 µM) | – | – | – | CC[C@H]1OC(=O)[C@H](C)[C@@H](OC(=O)C(C)C)[C@H](C)[C@@H](O[C@@H]2O[C@H](C)C[C@H](N(C)C)[C@H]2O)[C@](C)(OC(=O)NC/C=C/c2ccc(-c3cnccn3)cc2)C[C@@H](C)C(=O)[C@H](C)[C@H]2NC(=O)O[C@@]21C [Compound 45] | – |
| – | – | – | 0.5 (≈ 0.55 µM) | 0.5 (≈ 0.55 µM) | 0.06 (≈ 0.066 µM) | CC[C@H]1OC(=O)[C@H](C)[C@@H](OC(=O)C(C)C)[C@H](C)[C@@H](O[C@@H]2O[C@H](C)C[C@H](N(C)C)[C@H]2O)[C@](C)(OC(=O)OC/C=C/c2ccc(-c3cccnn3)cc2)C[C@@H](C)C(=O)[C@H](C)[C@H]2NC(=O)O[C@@]21C [Compound 82] | – |
| 2 (≈ 2.22 µM) | 2 (≈ 2.22 µM) | 0.25 (≈ 0.278 µM) | – | – | – | CC[C@H]1OC(=O)[C@H](C)[C@@H](OC(=O)C(C)C)[C@H](C)[C@@H](O[C@@H]2O[C@H](C)C[C@H](N(C)C)[C@H]2O)[C@](C)(OC(=O)NC/C=C/C=C/c2cnc(C(C)C)nc2)C[C@@H](C)C(=O)[C@H](C)[C@H]2NC(=O)O[C@@]21C [Compound 44] | – |
| – | – | – | 0.5 (≈ 0.567 µM) | 1 (≈ 1.13 µM) | 0.06 (≈ 0.068 µM) | CC[C@H]1OC(=O)[C@H](C)[C@@H](OC(=O)C(C)C)[C@H](C)[C@@H](O[C@@H]2O[C@H](C)C[C@H](N(C)C)[C@H]2O)[C@](C)(OC(=O)OC/C=C/c2cnc3ccccc3c2)C[C@@H](C)C(=O)[C@H](C)[C@H]2NC(=O)O[C@@]21C [Compound 86] | – |
| – | – | – | 0.25 (≈ 0.261 µM) | 0.25 (≈ 0.261 µM) | 0.03 (≈ 0.0313 µM) | CC[C@H]1OC(=O)[C@H](C)[C@@H](OC(=O)Cc2cccnc2)[C@H](C)[C@@H](O[C@@H]2O[C@H](C)C[C@H](N(C)C)[C@H]2O)[C@](C)(OC(=O)OC/C=C/c2ccc(-c3ncccn3)cc2)C[C@@H](C)C(=O)[C@H](C)[C@H]2NC(=O)O[C@@]21C [Compound 78] | – |
| – | – | – | – | – | – | CC[C@H]1OC(=O)[C@H](C)[C@@H](OC(=O)N(CC)CC)[C@H](C)[C@@H](O[C@@H]2O[C@H](C)C[C@H](N(C)C)[C@H]2O)[C@](C)(OC(=O)NC/C=C/c2ccc(-c3cccnn3)cc2)C[C@@H](C)C(=O)[C@H](C)[C@H]2NC(=O)O[C@@]21C [Compound 71] | MIC (E. faecalis ATCC29212; [3]): 1 µg/mL (≈ 1.07 µM); MIC (S. aureus ATCC29213; [3]): 1 µg/mL (≈ 1.07 µM); MIC (S. pneumoniae ATCC49619; [3]): 0.06 µg/mL (≈ 0.064 µM) |
| – | – | – | 0.5 (≈ 0.51 µM) | 1 (≈ 1.02 µM) | 0.25 (≈ 0.255 µM) | CC[C@H]1OC(=O)[C@H](C)[C@@H](OC(=O)N(CC)CC)[C@H](C)[C@@H](O[C@@H]2O[C@H](C)C[C@H](N(C)C)[C@H]2OC(C)=O)[C@](C)(OC(=O)OC/C=C/c2ccc(-c3ncccn3)cc2)C[C@@H](C)C(=O)[C@H](C)[C@H]2NC(=O)O[C@@]21C [Compound 75] | – |
| – | – | – | – | – | – | CC[C@H]1OC(=O)[C@H](C)[C@@H](OC(=O)N(CC)CC)[C@H](C)[C@@H](O[C@@H]2O[C@H](C)C[C@H](N(C)C)[C@H]2O)[C@](C)(OC(=O)NC/C=C/c2ccc(-c3cnccn3)cc2)C[C@@H](C)C(=O)[C@H](C)[C@H]2NC(=O)O[C@@]21C [Compound 69] | MIC (E. faecalis ATCC29212; [3]): 0.5 µg/mL (≈ 0.534 µM); MIC (S. aureus ATCC29213; [3]): 0.5 µg/mL (≈ 0.534 µM); MIC (S. pneumoniae ATCC49619; [3]): 0.06 µg/mL (≈ 0.064 µM) |
| 1 (≈ 1.1 µM) | 1 (≈ 1.1 µM) | 0.06 (≈ 0.0659 µM) | – | – | – | CC[C@H]1OC(=O)[C@H](C)[C@@H](OC(=O)C(C)C)[C@H](C)[C@@H](O[C@@H]2O[C@H](C)C[C@H](N(C)C)[C@H]2O)[C@](C)(OC(=O)NC/C=C/c2ccc(-c3ccn(C)n3)cc2)C[C@@H](C)C(=O)[C@H](C)[C@H]2NC(=O)O[C@@]21C [Compound 49] | – |
| – | – | – | 0.5 (≈ 0.522 µM) | 1 (≈ 1.04 µM) | 0.06 (≈ 0.0626 µM) | CC[C@H]1OC(=O)[C@H](C)[C@@H](OC(=O)Cc2cccnc2)[C@H](C)[C@@H](O[C@@H]2O[C@H](C)C[C@H](N(C)C)[C@H]2O)[C@](C)(OC(=O)OC/C=C/c2ccc(-c3cccnn3)cc2)C[C@@H](C)C(=O)[C@H](C)[C@H]2NC(=O)O[C@@]21C [Compound 79, 3-Pyridineacetic acid, (3aS,4R,7R,8S,9S,10R,11R,13R,15R,15aR)-4-ethyltetradecahydro-3a,7,9,11,13,15-hexamethyl-2,6,14-trioxo-11-[[[[(2E)-3-[4-(3-pyridazinyl)phenyl]-2-propenyl]oxy]carbonyl]oxy]-10-[[3,4,6-trideoxy-3-(dimethylamino)-β-D-xylo-hexopyranosyl]oxy]-2H-oxacyclotetradecino[4,3-d]oxazol-8-yl ester] | – |
| – | – | – | 0.5 (≈ 0.533 µM) | 0.5 (≈ 0.533 µM) | 0.03 (≈ 0.032 µM) | CC[C@H]1OC(=O)[C@H](C)[C@@H](OC(=O)N(CC)CC)[C@H](C)[C@@H](O[C@@H]2O[C@H](C)C[C@H](N(C)C)[C@H]2O)[C@](C)(OC(=O)OC/C=C/c2ccc(-c3cnccn3)cc2)C[C@@H](C)C(=O)[C@H](C)[C@H]2NC(=O)O[C@@]21C [Compound 85] | – |
